Results published in patent US20110138488A1, “DEFICIENCY IN THE HISTONE DEMETHYLASE JHDM2A RESULTS IN IMPAIRED ENERGY EXPENDITURE AND OBESITY” (priority 2008, published 2011).

Experiments:
primary myotubes = assay: AICAR-induced respiration (oxygen consumption) in primary myotubes; assay type: cell-based, mouse; conditions: wild-type (Jhdm2a+/+) primary myotubes, 500 μM AICAR for 16 hours
Experimental: Jhdm2a^+/+ and Jhdm2a^−/− primary myotubes were treated with 500 μM AICAR for 16 hours. Rates of oxygen consumption were normalized to cell counts. *p<0.05. The effect of Jhdm2a deficiency on energy expenditure was analyzed. Systemic energy expenditure includes basal metabolic rate, physical activity, and adaptive thermogenesis (Spiegelman, Cell 104, 531 (2001)). Metabolic studies were performed using TSE LabMaster calorimetry Module (TSE-System) in the Clinical Nutrition Research Unit at the University of North Carolina. For respiration measurements, cultured cells were resuspended in PBS. Oxygen consumption was measured using a Clarke-type electrode (Diamond General) at baseline, and after treatment with 10 μM isoproterenol (ISO) (Wu, Cell 98, 115 (1999)). For normalization of the respiration rates, an aliquot of the cells was lysed and protein concentration was measured. […] The decreased energy expenditure of the Jhdm2a KO mice was not a result of abnormal metabolic hormone secretion. […] Activation of AMPK signaling was determined by treating C2C12 myotubes with 800 μM AICAR (Sigma Aldrich) for 16 hours. […] To gain further support for the involvement of JHDM2A in AMPK-mediated mitochondrial function, the effect of Jhdm2a-deficiency on AMPK activation-mediated respiration in primary myotubes was measured.

PGC-1α promoter = conditions: control C2C12 cells, AICAR treatment
Experimental: Wild-type and Jhdm2a knock-down C2C12 myotubes with or without AICAR treatment were used for ChIP followed by qPCR. Antibodies against H3K9me1 and H3K9me2 were used in the ChIP assays. Results were normalized to input, and are shown as fold of enrichment relative to that in the wild-type C2C12 cells without AICAR treatment. *p<0.05.
To determine whether PGC-1α is a direct target of JHDM2A, ChIP assays were performed. Ctrl or Jhdm2a KD C2C12 myotubes with or without AICAR treatment were used for ChIP analysis with histone modification-specific antibodies and anti-JHDM2A as described previously (Okada, Nature 450, 119 (2007)).

HIB1B cells = assay: qRT-PCR and western blot of Jhdm2a in HIB1B cells after ISO; assay type: cell-based
Experimental: Given that cold-induced Ucp1 upregulation is intact in the PPARα-deficient mice (Kersten, et al., J. Clin. Invest. 103:1489 (1999)), the possibility was explored that Jhdm2a directly regulates Ucp1 expression in response to cold exposure. To ascertain that the effect of Jhdm2a on Ucp1 expression was cell-intrinsic, short-hairpin RNA (shRNA)-mediated was performed in the brown adipose cell line HIB1B using lentivirus-based shRNA. To generate a Jhdm2a knock-down HIB1B cell line, undifferentiated cells were infected with a lentiviral virus expressing a shRNA for Jhdm2a or control. The shRNA sequence for Jhdm2a was 5′-GCAGGTGTCACTAGCCTTAAT-3′ (SEQ ID NO:76). The differentiation of HIB1B cells was performed as previously described (Ross, et al., Proc. Natl. Acad. Sci. USA 89:7561 (1992)). […] Importantly, enforced overexpression of human JHDM2A in the knock-down cells partially rescued Ucp1 expression, see FIG. 36B. […] ISO-induced upregulation of Pgcla was also maintained in HIB1B knock-down cells, see FIG. 38.

Ucp1 enhancer = assay: ChIP analysis at the Ucp1 enhancer in HIB1B cells after ISO treatment; assay type: cell-based; conditions: control HIB1B cells
From the text: The Jhdm2a knock-down-induced increase in H3K9me2 level could be partially rescued by overexpression of JHDM2A coupled with ISO treatment. *P<0.05.
Results are normalized to IgG, and are shown as the fold-enrichment relative to that in the control cells without ISO. *P<0.05.
The possibility that Jhdm2a directly regulates Ucp1 expression was subsequently examined. […] The binding was site-specific as Jhdm2a was not detected within the Ucp1 coding region, see FIG. 39, amplicon B).
In addition to removing the repressive H3K9me2 mark at the Ucp1 enhancer, Jhdm2a could contribute to Ucp1 activation by affecting the recruitment of transcription factors and co-activators. To examine this possibility, the effect of the loss of Jhdm2a on the recruitment of transcription factors (PPARγ, Rxrα and Atf2) and co-activators (Pgc1α, CBP/p300 and Src1) was analyzed. […] However, the enhanced binding by PPARγ and Rxra disappeared in the Jhdm2a knock-down cells, see FIG. 41. Similar results were also observed for the co-activators, see FIG. 42. […] Collectively, the data herein indicate that Jhdm2a contributes to β-adrenergic-stimulated Ucp1 activation by maintaining a low level of H3K9me2 at the Ucp1 enhancer region, and by augmenting the recruitment of PPARγ and Rxrα and their co-activators to the Ucp1 enhancer element.

| Structure (SMILES) | respiration (rate of oxygen consumption) (primary myotubes) | H3K9me1 and H3K9me2 levels at the PGC-1α promoter (PGC-1α promoter) | Jhdm2a messenger RNA and protein levels (HIB1B cells) | H3K9me2 levels at the Jhdm2a binding site of the Ucp1 enhancer (Ucp1 enhancer) | binding of PPARγ, Rxrα and Atf2 to the Ucp1 enhancer (Ucp1 enhancer) |
| --- | --- | --- | --- | --- | --- |
| NC(=O)c1ncn([C@@H]2O[C@H](CO)[C@@H](O)[C@H]2O)c1N [AICAR] | increased respiration | decreased |  |  |  |
| CC(C)NCC(O)c1ccc(O)c(O)c1 (centres unmarked) [ISO, isoproterenol] |  |  | upregulated | specifically decreased | increased |
